From US20060204436A1, “Tritiated growth hormone secretagogue mk-0677” (priority 2003, published 2006) come the findings set out here.

The test addresses T1, growth hormone secretagogue receptor (Homo sapiens, UniProt Q92847).
T1 construct: expressed in transfected cells; host or cells: HEK 293 (EBNA) cells, membrane preparation
Description: Saturation binding assay using T-MK0677 on transfected HEK 293 (EBNA) cell membranes. As for the experimental part:
Human Embryonic Kidney HEK 293 (EBNA) cells were grown in suspension and transfected according to the method previously described (Schlaeger and Christensen, Cytotechnology, 30, 71-83, 1999). The cells were centrifugated for 10 min at 500 rpm, washed once with PBS-0.7 mM EDTA/(4° C.) and resuspended in PBS-EDTA-PI (with Protease inhibitor cocktail), at 2 ml/g of cells. Cells were broken with Ultra Turax level green 3×15″ with 30″ breaks on ice. To remove debris the suspension was centrifugated in a Sorvall SS34 rotor for 20 min at 2,000 rpm. The supernatant was collected and centrifugated for 40 min at 20,000 rpm. The pellet was resuspended in PBS-EDTA. Receptor density was verified with saturation binding assay using T-MK 0677 to be 4.9 pmol/mg protein.
The membrane was resuspended in Binding buffer (25 mM Hepes, pH 7.4, 25 mM MgCl2, 1 mM CaCl2, 0.1% BSA, 0.03% Bacitracine (protease inhibitor)) to 0.1 to 2 μg/well. […]
A filter plate (Packard GF/B unifilter plate) was treated with 50 μL/well 0.5% polyethyleneimine (PEI) in PBS for 15 min. […] Then 50 μL of Microscint 0 were added per well and the T decay counted in a topcount from Packard Instruments.

T1 sequence (Q92847 whole entry): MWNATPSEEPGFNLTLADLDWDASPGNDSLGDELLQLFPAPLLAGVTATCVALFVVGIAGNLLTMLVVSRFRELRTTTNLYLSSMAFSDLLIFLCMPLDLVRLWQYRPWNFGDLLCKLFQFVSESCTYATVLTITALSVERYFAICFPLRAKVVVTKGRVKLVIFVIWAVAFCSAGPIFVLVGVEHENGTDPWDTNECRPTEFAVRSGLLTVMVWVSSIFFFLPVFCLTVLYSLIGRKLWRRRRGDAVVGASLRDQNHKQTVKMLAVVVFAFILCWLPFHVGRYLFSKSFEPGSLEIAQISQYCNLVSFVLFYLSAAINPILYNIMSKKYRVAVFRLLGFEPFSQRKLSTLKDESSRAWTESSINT

“tris-tritiated-2-amino-N-[(1R)-2-[1,2-dihydro-1-(methylsulfonyl)spiro[3H-indole-3,4′-piperidin]-1′-yl]-2-oxo-1-[(phenylmethoxy)methyl]ethyl]-2-methyl-, monomethanesulfonate [T-MK 0677]” yielded a Receptor density of 4.9 pmol/mg protein.
